Source: paper PMC5225203, “Multiparameter toxicity assessment of novel DOPO-derived organophosphorus flame retardants” (Archives of Toxicology, 2016)

Tests used:
[1] = tested on: differentiating LUHMES cells; type: cell-based, human; details: day 0 to day 2
Protocol: LUHMES cells are conditionally immortalized human fetal ventral mesencephalic neuronal precursor cells that were obtained by clonal selection. Differentiated LUHMES cells show a clear dopaminergic phenotype, which was described in detail previously (Schildknecht et al. [2009]; Scholz et al. [2011]). Cells were propagated in advanced DMEM/F12 (Gibco/Invitrogen, Darmstadt, Germany) with 1 × N2 supplement (Invitrogen), 2 mM L-glutamine (Gibco), and 40 ng/mL recombinant bFGF (R&D Systems, Minneapolis, MN, USA). […] For quantitative evaluation of the neurite area, β-III-tubulin-stained cells were analyzed using an automated microplate-reading microscope (Array-Scan II® HCS Reader, Cellomics, Pittsburgh, PA, USA) equipped with a Hamamatsu ORCA-ER camera (1024 × 1024 resolution; run at 2 × 2 binning). […]
For quantitative assessment of total neurite mass, cells were analysed by an automated microscope system with imaging algorithms allowing a separation between cell bodies and […]
Suppl. […] Differentiating human dopaminergic neurons (LUHMES) were treate d with the different flame retardants in the concentrations as indicated for 48 h from day 0 to day 2 of differentiation. a Cell viability was determined by the resazurin redu ction and by the lactate dehydrogenase release assays. b Intracellular levels of ATP and of reduced glutathione (GSH) were measured in parallel.

Daphnia magna = details: water-soluble fraction of a 1000 mg/L suspension (approximately 2 mM), 48 h; ref Waaijers et al. [2013a], [b]; cited from earlier work
[2] = tested on: rat adrenomedullary pheochromocytoma PC12 cells; details: PC12, 24 h, maximal concentration 100 µM; ref Hendriks et al. [2014]; cited from earlier work

Structure (SMILES)	influence on total neurite area [1]	intracellular levels of ATP and GSH [1]	influence on daphnid viability (Daphnia magna)	alterations in cell viability, generation of reactive oxygen species, or intracellular Ca2+ levels [2]
O=P1(NCCNP2(=O)Oc3ccccc3-c3ccccc32)Oc2ccccc2-c2ccccc21 (stereo not shown) [EDA-DOPO, 6,6′-(ethane-1,2-diylbis(azanediyl))bis(6H-dibenzo[c,e][1,2]oxaphosphinine-6-oxide)]	moderate, but significant influence	this effect was not reflected		
O=[PH]1Oc2ccccc2-c2ccccc21 (stereo not shown) [DOPO, 9,10-dihydro-9-oxa-10-phosphaphenanthrene-10-oxide]			did not significantly influence viability	no signs of alterations
